In ChEMBL document CHEMBL3351706, “Identification of trichostatin derivatives from Streptomyces sp. CPCC 203909” (Bioorg Med Chem Lett, 2015):

Tests used:
HepG2 = assay: Cytotoxicity against human HepG2 cells after 96 hrs by MTT assay; assay type: functional, cell-based; details: HepG2, 96 h
[1] = Up-regulation of transcriptional activity of human CLA-1 promoter region -1055 to -62bp transfected in HepG2 cells by luciferase reporter gene assay; assay type: cell-based
HEK293 = assay: Cytotoxicity against human HEK293 cells after 96 hrs by MTT assay; assay type: cell-based; details: HEK293, 96 h
[2] = Cytotoxicity against human LO2 cells after 96 hrs by MTT assay; assay type: cell-based; details: L02, 96 h
HeLa = assay: Cytotoxicity against human HeLa cells after 96 hrs by MTT assay; assay type: functional, cell-based
U2OS = assay: Cytotoxicity against human U2OS cells after 96 hrs by MTT assay; assay type: functional, cell-based

Compound | EC50 [1] | IC50 (HepG2) | IC50 (HEK293) | IC50 [2] | IC50 (HeLa) | IC50 (U2OS)
CC(/C=C/C(=O)NO[C@@H]1O[C@H](CO)[C@@H](O)[C@H](O)[C@H]1O)=C\[C@@H](C)C(=O)c1ccc(N(C)C)cc1 | 46 µM | > 200 µM | > 100 µM | > 200 µM | > 200 µM | > 200 µM
CC(/C=C/C(=O)NO)=C\[C@@H](C)C(=O)c1ccc(N(C)C)cc1 [TRICHOSTATIN] | 0.38 µM | 0.96 µM | 0.16 µM | 0.21 µM | 0.85 µM | 14.9 µM
CNC(=O)/C=C/C(C)=C/[C@@H](C)C(=O)c1ccc(N(C)C)cc1 | 78.8 µM | > 200 µM | 8.14 µM | 23.9 µM | > 200 µM | > 200 µM
CC(/C=C/C(=O)NO[C@H]1O[C@H](CO)[C@@H](O)[C@H](O)[C@H]1O)=C\[C@@H](C)C(=O)c1ccc(N(C)C)cc1 | 48.2 µM | > 200 µM | > 100 µM | > 200 µM | > 200 µM | > 200 µM

Continued, in another order:

EC50 [1] | Compound | IC50 (HepG2) | IC50 (HEK293) | IC50 [2] | IC50 (HeLa) | IC50 (U2OS)
> 100 µM | CC(/C=C/C(N)=O)=C\[C@@](C)(O)C(=O)c1ccc(N(C)C)cc1 | > 200 µM | > 100 µM | > 200 µM | > 200 µM | > 200 µM
2.39 µM | CC(/C=C/C(N)=O)=C\[C@@H](C)C(=O)c1ccc(N(C)C)cc1 | > 200 µM | 26.2 µM | 29.1 µM | > 200 µM | > 200 µM
> 100 µM | CC(=C/[C@@H](C)C(=O)c1ccc(N(C)C)cc1)/C=C/C(=O)O | > 200 µM | > 100 µM | > 200 µM | > 200 µM | > 200 µM
14.3 µM | CNc1ccc(C(=O)[C@](C)(O)/C=C(C)/C=C/C(=O)NO)cc1 | > 200 µM | 14.2 µM | 15.5 µM | > 200 µM | > 200 µM
> 100 µM | CNc1ccc(C(=O)[C@](C)(O)/C=C(C)/C=C/C(N)=O)cc1 | > 200 µM | > 100 µM | > 200 µM | > 200 µM | > 200 µM
> 100 µM | CC(/C=C/C(=O)O)=C\[C@@H](C)C(=O)c1ccc(N(C)C)cc1 [TRICHOSTATIC ACID] | > 200 µM | 86.6 µM | 89.2 µM | > 200 µM | > 200 µM
